Data reported in US20250230147A1, “LACTAMS AS CBL-B INHIBITORS” (Genentech, Inc., priority 2021, published 2025).
Counter-ions that a name gives are not always drawn.

Key:
c-Cbl = c-Cbl (Homo sapiens (Human), UniProt P22681); assay: C-Cbl LCK Ub TR-FRET assay (c-cbl Lck HTRF); type: biochemical; conditions: for (fold-selectivity): C-cbl Lck HTRF IC50 relative to Cbl-b Lck HTRF IC50
Procedure, shortened: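 Detection reagents added, brief spin, 20 min RT. IC50 fit normalized to no-LCK (low) and DMSO (high) controls.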

Cbl-b = Cbl-b (Homo sapiens (Human), UniProt Q13191); assay: Cbl-b LCK Ub TR-FRET assay (Cbl-b Lck HTRF); type: biochemical
Procedure, shortened: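 Biotin-Cbl-b preincubated with compound (10-point 3-fold series) 60 min, then His-LCK with 1 mM ATP (2× mixture) added for 90 min at room temperature. Ubiquitination detected by TR-FRET using HA-ubiquitin/UBE2D2 adduct, anti-HA-D2 and streptavidin-Eu; IC50 normalised to no-LCK and DMSO controls.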

c-Cbl, sequence (P22681 47-435): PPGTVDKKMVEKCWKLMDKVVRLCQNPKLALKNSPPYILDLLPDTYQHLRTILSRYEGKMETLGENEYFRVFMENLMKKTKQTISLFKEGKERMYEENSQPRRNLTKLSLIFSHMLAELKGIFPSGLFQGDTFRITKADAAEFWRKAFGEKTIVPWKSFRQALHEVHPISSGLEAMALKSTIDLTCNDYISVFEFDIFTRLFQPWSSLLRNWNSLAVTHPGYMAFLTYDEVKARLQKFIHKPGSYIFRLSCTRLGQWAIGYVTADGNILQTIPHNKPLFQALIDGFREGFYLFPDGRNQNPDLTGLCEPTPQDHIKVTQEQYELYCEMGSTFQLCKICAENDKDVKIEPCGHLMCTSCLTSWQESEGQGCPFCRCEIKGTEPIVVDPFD
Cbl-b, sequence (Q13191 40-426): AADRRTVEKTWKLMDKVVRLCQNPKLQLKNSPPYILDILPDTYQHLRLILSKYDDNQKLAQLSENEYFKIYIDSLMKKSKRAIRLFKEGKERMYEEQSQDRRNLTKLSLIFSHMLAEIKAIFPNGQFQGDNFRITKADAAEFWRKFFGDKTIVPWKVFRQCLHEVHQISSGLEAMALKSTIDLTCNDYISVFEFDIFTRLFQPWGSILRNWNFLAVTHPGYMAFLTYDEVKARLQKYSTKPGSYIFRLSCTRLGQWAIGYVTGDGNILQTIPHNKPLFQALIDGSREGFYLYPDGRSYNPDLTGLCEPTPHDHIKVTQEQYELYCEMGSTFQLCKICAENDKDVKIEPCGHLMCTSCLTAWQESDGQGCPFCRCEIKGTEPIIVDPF

| Structure (SMILES) | IC50 (c-Cbl) [nM] | (fold-selectivity) (c-Cbl) | IC50 (Cbl-b) [nM] |
| --- | --- | --- | --- |
| CC(C)NCc1cc2c(c(C(F)(F)F)c1)CN(c1cccc(C3([C@H](F)c4nncn4C)CC(F)(F)C3)c1)C2=O [Compound 418, (S)-2-(3-(3,3-difluoro-1-(fluoro(4-methyl-4H-1,2,4-triazol-3-yl)methyl)cyclobutyl)phenyl)-6-((isopropylamino)methyl)-4-(trifluoromethyl)isoindolin-1-one] | 37 | (1.2x) | 32 |
| CC(C)[C@H]1CN(C)CCN1Cc1cc2c(c(C(F)(F)F)c1)CN(c1cccc(C3(C(F)(F)c4nncn4C)CC3)c1)C2=O [Compound 221, (S)-2-(3-(1-(Difluoro(4-methyl-4H-1,2,4-triazol-3-yl)methyl)cyclopropyl)phenyl)-6-((2-isopropyl-4-methylpiperazin-1-yl)methyl)-4-(trifluoromethyl)isoindolin-1-one] | 15 | 1.0x | 15 |
| Cn1cnnc1[C@@H](F)C1(c2cccc(NC(=O)c3cc(CN4CC(C)(CO)C4)cc(C4CC4)n3)c2)CC(F)(F)C1 [Compound 423, (S)-6-cyclopropyl-N-(3-(3,3-difluoro-1-(fluoro(4-methyl-4H-1,2,4-triazol-3-yl)methyl)cyclobutyl)phenyl)-4-((3-(hydroxymethyl)-3-methylazetidin-1-yl)methyl)picolinamide] | 23 | (1.0x) | 23 |
| Cc1ccnn1CC1(c2cccc(N3Cc4c(cc(CN5CCN(C)C[C@@H]5C(C)C)cc4C(F)(F)F)C3=O)c2)COC1 [Compound 263, (S)-6-((2-isopropyl-4-methylpiperazin-1-yl)methyl)-2-(3-(3-((5-methyl-1H-pyrazol-1-yl)methyl)oxetan-3-yl)phenyl)-4-(trifluoromethyl)isoindolin-1-one] | 59 | (1.3x) | 45 |
| Cn1cnnc1[C@@H](F)[C@](C)(F)c1cccc(N2Cc3c(cc(CN4CC(C)(F)C4)cc3C(F)(F)F)C2=O)c1 [Compound 34] | 760 | 2.0x | 380 |
| Cn1cnnc1[C@H](F)C1(c2cccc(N3Cc4c(cc(CN5CC(C(F)F)C5)cc4C(F)(F)F)C3=O)c2)COC1 [Compound 137, (R)-6-((3-(difluoromethyl)azetidin-1-yl)methyl)-2-(3-(3-(fluoro(4-methyl-4H-1,2,4-triazol-3-yl)methyl)oxetan-3-yl)phenyl)-4-(trifluoromethyl)isoindolin-1-one] | 57 | 1.9x | 29 |
| Cn1cnnc1C(F)(F)C1(c2cccc(N3Cc4c(cc(CNC5(C)CCC5)cc4C(F)(F)F)C3=O)c2)CCC1 [Compound 235, 2-(3-(1-(difluoro(4-methyl-4H-1,2,4-triazol-3-yl)methyl)cyclobutyl)phenyl)-6-(((1-methylcyclobutyl)amino)methyl)-4-(trifluoro-methyl)isoindolin-1-one] | 21 | (1.4x) | 15 |
| Cn1cnnc1CC(F)(F)c1cccc(N2Cc3c(cccc3C(F)(F)F)C2=O)c1 [Compound 15, 2-(3-(1,1-difluoro-2-(4-methyl-4H-1,2,4-triazol-3-yl)ethyl)phenyl)-4-(trifluoromethyl)isoindolin-1-one] | 6400 | 1.8x | 3500 |
| C[C@@H]1CN(Cc2cc3c(c(C(F)(F)F)c2)CN(c2cccc(C4([C@@H](F)c5nncn5C)COC4)c2)C3=O)CCCO1 [Compound 119, 2-(3-(3((R)-fluoro(4-methyl-4H-1,2,4-triazol-3-yl)methyl)oxetan-3-yl)phenyl)-6-(((R)-2-methyl-1,4-oxazepan-4-yl)methyl)-4-(trifluoromethyl)isoindolin-1-one] | 52 | 1.1x | 48 |
| Cn1cnnc1[C@@H](F)C1(c2cccc(N3Cc4c(cc(CN)cc4C(F)(F)F)C3=O)c2)COC1 [Compound 69, (S)-6-(aminomethyl)-2-(3-(3-(fluoro(4-methyl-4H-1,2,4-triazol-3-yl)methyl)oxetan-3-yl)phenyl)-4-(trifluoromethyl)isoindolin-1-one] | 340 | 1.6x | 210 |
| CNc1cc(C2(Cc3nncn3C)CCC2)cc(N2Cc3c(cc(CNC4(C)CCC4)cc3C(F)(F)F)C2=O)n1 [Compound 310, 2-(4-(1-((4-methyl-4H-1,2,4-triazol-3-yl)methyl)cyclobutyl)-6-(methylamino)pyridin-2-yl)-6-(((1-methylcyclobutyl)amino)methyl)-4-(trifluoromethyl)isoindolin-1-one formate] | 11 |  | 10 |
| CC[C@H]1CC[C@@H](c2cc3c(c(C(F)(F)F)c2)CN(c2cccc(C4(Cc5nncn5C)CC(F)(F)C4)c2)C3=O)N1 [Compound 475, 2-(3-(3,3-difluoro-1-((4-methyl-4H-1,2,4-triazol-3-yl)methyl)cyclobutyl)phenyl)-6-((2S,5S)-5-ethylpyrrolidin-2-yl)-4-(trifluoromethyl)isoindolin-1-one] | 69 | (1.3x) | 54 |
| C=CC1(O)CN(Cc2cc3c(c(C(F)(F)F)c2)CN(c2cccc(C4([C@@H](F)c5nncn5C)COC4)c2)C3=O)C1 [Compound 169, (R)-2-(3-(3-(fluoro(4-methyl-4H-1,2,4-triazol-3-yl)methyl)oxetan-3-yl)phenyl)-6-((3-hydroxy-3-vinylazetidin-1-yl)methyl)-4-(trifluoromethyl)isoindolin-1-one] | 99 | 2.2x | 44 |
| Cn1cnc(CNc2cc(C3(Cc4nncn4C)CCC3)cc(N3Cc4c(cc(CNC5(C)CCC5)cc4C(F)(F)F)C3=O)n2)c1 [Compound 320, 2-(6-(((1-methyl-1H-imidazol-4-yl)methyl)amino)-4-(1-((4-methyl-4H-1,2,4-triazol-3-yl)methyl)cyclobutyl)pyridin-2-yl)-6-(((1-methylcyclobutyl)amino)methyl)-4-(trifluoromethyl)isoindolin-1-one] | 51 | (2.4x) | 21 |
| Cn1cnnc1CC1(c2cccc(N3Cc4c(cc([C@@H](N)C5CC5)cc4C(F)(F)F)C3=O)c2)CC(F)(F)C1 [Compound 453, (S)-6-(amino(cyclopropyl)methyl)-2-(3-(3,3-difluoro-1-((4-methyl-4H-1,2,4-triazol-3-yl)methyl)cyclobutyl)phenyl)-4-(trifluoromethyl)isoindolin-1-one] | 18 | (1.4x) | 14 |
| CC(C)[C@H]1CN(Cc2cc3c(c(C(F)(F)F)c2)CN(c2cccc(C4([C@@H](F)c5nncn5C)COC4)c2)C3=O)CCN1 [Compound 90, 2-(3-(3((R)-fluoro(4-methyl-4H-1,2,4-triazol-3-yl)methyl)oxetan-3-yl)phenyl)-6-(((S)-3-isopropylpiperazin-1-yl)methyl)-4-(trifluoromethyl)isoindolin-1-one] | 58 | 1.4x | 42 |
| Cn1cnnc1C[C@]1(c2cccc(N3Cc4c(cccc4C(F)(F)F)C3=O)c2)C[C@@H](F)C1 [Compound 99, 2-(3-((1s,3r)-3-fluoro-1-((4-methyl-4H-1,2,4-triazol-3-yl)methyl)cyclobutyl)phenyl)-4-(trifluoromethyl)isoindolin-1-one] | 340 | 2.0x | 170 |
| CC(C)[C@H]1CN(C)CCN1C(C)c1cc2c(c(C(F)(F)F)c1)CN(c1cccc(C3([C@@H](F)c4nncn4C)CC(F)(F)C3)c1)C2=O (stereo partly drawn) [Compound 388, 2-(3-(3,3-difluoro-1-((R)-fluoro(4-methyl-4H-1,2,4-triazol-3-yl)methyl)cyclobutyl)phenyl)-6-(1-((S)-2-isopropyl-4-methylpiperazin-1-yl)ethyl)-4-(trifluoromethyl)isoindolin-1-one] | 63 | (1.4x) | 46 |
| Cn1cnnc1CC1(c2cc(C3CC3)nc(N3Cc4c(cc(CNC5(C)CCC5)cc4C(F)(F)F)C3=O)c2)CCC1 [Compound 284, 2-(6-cyclopropyl-4-(1-((4-methyl-4H-1,2,4-triazol-3-yl)methyl)cyclobutyl)pyridin-2-yl)-6-(((1-methylcyclobutyl)amino)methyl)-4-(trifluoromethyl)isoindolin-1-one] | 7.4 | (0.59x) | 12 |
| Cn1cnnc1[C@@H](F)C1(c2cccc(N3Cc4c(cc(CN5CC(C)(O)C5)cc4C(F)(F)F)C3=O)c2)CC(F)(F)C1 [Compound 52, (S)-2-(3-(3,3-difluoro-1-(fluoro(4-methyl-4H-1,2,4-triazol-3-yl)methyl)cyclobutyl)-phenyl)-6-((3-hydroxy-3-methylazetidin-1-yl)methyl)-4-(trifluoromethyl)isoindolin-1-one] | 130 | 2.1x | 62 |
| Cn1cnnc1CC1(c2cccc(N3Cc4c(cc(C5CCN5)cc4C(F)(F)F)C3=O)c2)COC1 (stereo not shown) [Compound 13, 6-(azetidin-2-yl)-2-(3-(3-((4-methyl-4H-1,2,4-triazol-3-yl)methyl)oxetan-3-yl)phenyl)-4-(trifluoromethyl)isoindolin-1-one formate] | 540 |  | 320 |
| CN(CCC(C)(C)O)Cc1cc2c(c(C(F)(F)F)c1)CN(c1cccc(C3([C@@H](F)c4nncn4C)COC3)c1)C2=O [Compound 157, (R)-2-(3-(3-(fluoro(4-methyl-4H-1,2,4-triazol-3-yl)methyl)oxetan-3-yl)phenyl)-6-(((3-hydroxy-3-methylbutyl)(methyl)amino)methyl)-4-(trifluoromethyl)isoindolin-1-one] | 110 | 1.6x | 72 |
